Key:
[1] = tested on: PC-3; assay: WST-1 IC50 determination, PC-3; format: cell-based, human; settings: 72 hours, WST-1; for IC50: read-out: Anticancer activity IC50 ± SD, PC-3
Procedure: (§1) Cell lines and culturing. The following human cell lines were purchased from ATCC (ATCC, Manassas, Va.): prostate cancer cells (PC-3), triple negative breast cancer cells (MDA-MB-231), ovarian cancer cells (OVCAR-3), normal bone marrow (NBM) and normal fibroblast cells (MCR5A). MDA-MB-231 cells were grown at 37° C. with 5% CO2 atmosphere with DMEM (Life technologies, Carlsbad, Calif.) supplemented with heat-inactivated 10% (V/V) fetal bovine serum. OVCAR-3 and PC-3 cells were grown at 37° C. with 5% CO2 atmosphere with RPMI (Life technologies, Carlsbad, Calif.) supplemented with heat-inactivated 10% (V/V) fetal bovine serum. Cell lines were grown and maintained according to ATCC recommendations.
(§2) IC50 determination. Cell lines were seeded into 96-well plates the afternoon prior to treatment. Cell seeding number was determined by growing cells in log phase growth during drug treatment. Approximately 18 hours later, compounds were semi-serially diluted in dimethyl sulfoxide (DMSO) and then growth medium, and added to cells. Plates were incubated for 72 hours prior to addition of WST-1 (Promega, Madison Wis.). Plates were read after 4 additional hours of incubation at 37° C. using a Bio-Tek Synergy HT plate reader (Bio-Tek, Winooski, Vt.). Data was analyzed, graphed and IC50s generated using GraphPad Prism Software (Graphpad, La Jolla, Calif.).
(§3) IC50 determination: For the determination of IC50 for the azolamide class, the same protocol as described previously was followed.

[2] = tested on: duplex; assay: FRET melting assay, duplex DNA; format: binding; settings: dual-labeled DNA 0.2 μM, DMZ analogues 1 μM, potassium cacodylate 60 mM pH 7.2
Procedure: (§4) Fluorescence resonance energy transfer (FRET) assay to determine Tm in absence and presence of ligands. Dual-labelled DNA was diluted from stock (50 μM) to 400 nM in 60 mM potassium cacodylate buffer (pH 7.2) and then annealed by heating at 85° C. for 10 min followed by cooling to room temperature in the heating block. Compounds were diluted from stock (20 mM in DMSO) to 2 μM in 60 mM cacodylate buffer (pH 7.2). 25 μL annealed DNA was added to 96-well plate followed by 25 μL diluted compounds. The sequences of labelled oligonucleotides were as follows: F21T 21-mer (5′-FAM-GGGTTAGGGTTAGGGTTAGGG-TAMRA-3′) (SEQ ID NO:11), c-kit2 26-mer (5′-FAM-CCCGGGCGGGCGCGAGGGAGGGGAGG-TAMRA-3′) (SEQ ID NO:12), k-RAS21R 21-mer (5′-FAM-AGGGCGGTGTGGGAAGAGGGA-TAMRA-3′) (SEQ ID NO:13), c-MYC 22-mer (5′-FAM-TGAGGGTGGGTAGGGTGGGTAA-TAMRA-3′) (SEQ ID NO:14) and duplex 26-mer (5′-FAM-TATAGCTATATTTTTTTATAGCTATA-TAMRA-3′) (SEQ ID NO: 15). Measurements were made in triplicate by using a LightCycler 480 System RT-PCR machine (Roche) and average values were reported. Fluorescence readings were made with excitation at 450-495 nm and detection at 515-545 nm, taken at intervals of 1.2° C./min in the range 25° C. to 95° C.

[3] = tested on: c-kit2; assay: FRET melting assay, c-kit2; format: binding; settings: dual-labeled DNA 0.2 μM, DMZ analogues 1 μM, potassium cacodylate 60 mM pH 7.2
Procedure: as §4

[4] = tested on: MDA-MB-231; assay: WST-1 IC50 determination, MDA-MB-231; format: cell-based, human; settings: 72 hours, WST-1; for IC50: read-out: Anticancer activity IC50 ± SD, MDA-MB-231
Procedure: as §1, §2, §3

[5] = tested on: c-MYC; assay: FRET melting assay, c-MYC; format: binding; settings: dual-labeled DNA 0.2 μM, DMZ analogues 1 μM, potassium cacodylate 60 mM pH 7.2
Procedure: as §4

[6] = tested on: k-RAS21R; assay: FRET melting assay, k-RAS21R; format: binding; settings: dual-labeled DNA 0.2 μM, DMZ analogues 1 μM, potassium cacodylate 60 mM pH 7.2
Procedure: as §4

[7] = tested on: OVCAR-3; assay: WST-1 IC50 determination, OVCAR-3; format: cell-based, human; settings: 72 hours, WST-1; for IC50: read-out: Anticancer activity IC50 ± SD, OVCAR-3
Procedure: as §1, §2, §3

[8] = tested on: F21T; assay: FRET melting assay, F21T; format: binding; settings: dual-labeled DNA 0.2 μM, DMZ analogues 1 μM, potassium cacodylate 60 mM pH 7.2
Procedure: as §4

SMILES | IC50 [1] | ΔTm duplex [2] | ΔTm c-kit2 [3] | IC50 [4] | ΔTm c-MYC [5] | ΔTm k-RAS21R [6] | IC50 [7] | ΔTm F21T [8] | Anticancer activity IC50 ± SD, PC-3 [1] | Anticancer activity IC50 ± SD, MDA-MB-231 [4] | Anticancer activity IC50 ± SD, OVCAR-3 [7]
C#Cc1cccc(NN=Nc2ccc(C(=N)N)cc2)c1 [DMZ5] | 18 ± 5.7 µM | NE (NE means not effective binding (ΔTm < 1° C.)) | 5.48 ± 0.45 °C | 20.5 ± 4.2 µM | 7.51 ± 0.26 °C | 6.39 ± 0.89 °C | 16.8 ± 3.1 µM | 4.39 ± 0.26 °C | – | – | –
N=C(N)c1ccc(N)cc1 [4-aminobenzamidine, reference compound] | – | – | – | – | – | – | – | – | NE (NE means not effective. Cell viability was the same or greater than 75% of the DMSO control at 20 μM compound concentration.) | NE (NE means not effective. Cell viability was the same or greater than 75% of the DMSO control at 20 μM compound concentration.) | NE (NE means not effective. Cell viability was the same or greater than 75% of the DMSO control at 20 μM compound concentration.)
N=C(N)c1ccc(N=NNc2cccc(C#Cc3ccccn3)c2)cc1 [DMZ8] | 10.4 ± 1.4 µM | NE (NE means not effective binding (ΔTm < 1° C.)) | 8.04 ± 0.26 °C | 14.4 ± 0.9 µM | 9.32 ± 0.00 °C | 14.62 ± 0.45 °C | 10.7 ± 1.5 µM | 4.75 ± 0.00 °C | – | – | –
N=C(N)c1ccc(N=NNc2ccccc2C#Cc2ccccc2)cc1 [DMZ12] | 5.3 ± 0.2 µM | NE (NE means not effective binding (ΔTm < 1° C.)) | 5.12 ± 0.26 °C | 5.1 ± 0.4 µM | 7.15 ± 0.00 °C | 2.19 ± 0.26 °C | 8.1 ± 0.5 µM | 4.20 ± 0.00 °C | – | – | –
N=C(N)c1ccc(N=NNc2cccc(-c3ccccc3)c2)cc1 [DMZ6] | – | NE (NE means not effective binding (ΔTm < 1° C.)) | 5.48 ± 0.45 °C | – | 7.49 ± 0.26 °C | 4.20 ± 0.90 °C | – | 4.57 ± 0.26 °C | NE (NE means not effective. Cell viability was the same or greater than 75% of the DMSO control at 20 μM compound concentration.) | NE (NE means not effective. Cell viability was the same or greater than 75% of the DMSO control at 20 μM compound concentration.) | NE (NE means not effective. Cell viability was the same or greater than 75% of the DMSO control at 20 μM compound concentration.)
N#Cc1ccc(NN=Nc2ccc(C(=N)N)cc2)cc1 [DMZ2] | – | NE (NE means not effective binding (ΔTm < 1° C.)) | 5.30 ± 0.26 °C | – | 8.06 ± 0.68 °C | 7.49 ± 0.00 °C | – | 4.20 ± 0.00 °C | NE (NE means not effective. Cell viability was the same or greater than 75% of the DMSO control at 20 μM compound concentration.) | NE (NE means not effective. Cell viability was the same or greater than 75% of the DMSO control at 20 μM compound concentration.) | NE (NE means not effective. Cell viability was the same or greater than 75% of the DMSO control at 20 μM compound concentration.)
N#Cc1cccc(NN=Nc2ccc(C(=N)N)cc2)c1 [DMZ4] | – | NE (NE means not effective binding (ΔTm < 1° C.)) | 6.22 ± 0.26 °C | – | 6.94 ± 0.26 °C | 2.00 ± 0.45 °C | – | 4.57 ± 0.26 °C | NE (NE means not effective. Cell viability was the same or greater than 75% of the DMSO control at 20 μM compound concentration.) | NE (NE means not effective. Cell viability was the same or greater than 75% of the DMSO control at 20 μM compound concentration.) | NE (NE means not effective. Cell viability was the same or greater than 75% of the DMSO control at 20 μM compound concentration.)
Nc1cccc(C#Cc2ccc(F)cc2)c1 [compound 15, reference compound] | – | – | – | – | – | – | – | – | NE (NE means not effective. Cell viability was the same or greater than 75% of the DMSO control at 20 μM compound concentration.) | NE (NE means not effective. Cell viability was the same or greater than 75% of the DMSO control at 20 μM compound concentration.) | NE (NE means not effective. Cell viability was the same or greater than 75% of the DMSO control at 20 μM compound concentration.)
COc1ccc(C#Cc2cccc(NN=Nc3ccc(C(=N)N)cc3)c2)cc1 [DMZ10] | 5 ± 0.9 µM | NE (NE means not effective binding (ΔTm < 1° C.)) | 5.48 ± 0.00 °C | 5.5 µM | 8.06 ± 0.26 °C | 1.65 ± 0.26 °C | 5.2 ± 0.4 µM | 4.39 ± 0.26 °C | – | – | –
C#Cc1ccccc1NN=Nc1ccc(C(=N)N)cc1 [DMZ11] | > 50 µM | NE (NE means not effective binding (ΔTm < 1° C.)) | 7.68 ± 0.00 °C | 23.2 µM | 8.77 ± 0.00 °C | 2.19 ± 0.26 °C | > 25 µM | 4.20 ± 0.00 °C | – | – | –
C#Cc1ccc(NN=Nc2ccc(C(=N)N)cc2)cc1 [DMZ3] | 22.5 ± 8.8 µM | NE (NE means not effective binding (ΔTm < 1° C.)) | 5.30 ± 0.26 °C | 30.2 ± 1.8 µM | 7.13 ± 0.45 °C | 5.66 ± 0.51 °C | 11.8 ± 1.7 µM | 4.57 ± 0.26 °C | – | – | –
N=C(N)c1ccc(N=NNc2cccc(C#Cc3ccccc3)c2)cc1 [DMZ7] | 5.8 ± 0.2 µM | NE (NE means not effective binding (ΔTm < 1° C.)) | 6.40 ± 0.26 °C | 9.5 ± 1.3 µM | 7.33 ± 0.26 °C | 2.56 ± 0.00 °C | 6.5 ± 2.1 µM | 4.20 ± 0.00 °C | – | – | –

Source: patent US20190209548A1, “LINKED DIARYL COMPOUNDS WITH ANTICANCER PROPERTIES AND METHODS OF USING THE SAME” (University of Maryland, College Park, priority 2014, published 2019)
